# How the values were obtained:
# [1] = test system: young oophorectomized rats; assay: E activity-potentiating effect in young oophorectomized rats (uterine wet weight); format: in vivo, Spraque-Dawley rats; conditions: 3 days; for increase of uterine weight by the compound alone: without estrone; for Uterine wet weight (mg ± S.D.): autopsy on 4th day
# Experimental: Spraque-Dawley rats, 33 days of age and 11 days after oophorectomy for elimination of endogenous E activity, were assigned to groups of 5 to 7 individuals and treated subcutaneously with solutions of esterone in sesame oil or orally with suspensions of Compound A in 1% hydroxypropylcellulose solution, either independently or in combination, for 3 days. On the 4th day, each animal was autopsied and its uterine wet weight was recorded. […] Spraque-Dawley rats, 33 days of age and 11 days after oophorectomy for elimination of endogenous E activity, were assigned to groups of 5 to 7 individuals and treated subcutaneously with solutions of esterone in sesame oil or orally with suspensions of Compound B in 1% hydroxypropylcellulose solution, either independently or in combination, for 3 days. On the 4th day, each animal was autopsied and its uterine wet weight was recorded.
# ICR mice = assay: Acute toxicity in mice; format: in vivo; conditions: 5-week-old ICR mice, 14 days observation, LD50 could not be calculated
# Experimental: (§1) Five-week-old ICR mice and 5-week-old Spraque-Dawley rats were used in groups of 10 males and 10 females, and suspensions of compound A or B in olive oil were administered orally [2,500, 5,000 and 10,000 mg/kg of each compound] or subcutaneously (1,250, 2,500 and 5,000 mg/kg). The animals were kept under observation for 14 days.
# Spraque-Dawley rats = assay: Acute toxicity in rats; format: in vivo; conditions: 5-week-old Spraque-Dawley rats, 14 days observation, LD50 could not be calculated
# Experimental: as §1
# [2] = oral 2,500, 5,000 and 10,000 mg/kg in olive oil
# [3] = subcutaneous 1,250, 2,500 and 5,000 mg/kg in olive oil
structure (smiles),measurement,setting,value
"O=c1c(-c2ccccc2)coc2cc(O)ccc12 [Compound A, 7-hydroxy-isoflavone]",potentiation of the uterine weight increasing action of estrone,[1]; Compound A at 50 and 100 mg/kg oral with estrone subcutaneous,potentiated the uterine weight increasing action of estrone
same,increase of uterine weight by the compound alone,[1]; Compound A at 50 and 100 mg/kg oral,did not cause an increase of uterine weight
same,Uterine wet weight (mg ± S.D.),"[1]; Table 1, Compound A 50 mg/kg daily oral, estrone 0",35.3 ± 1.7 mg
same,Uterine wet weight (mg ± S.D.),"[1]; Table 1, Compound A 100 mg/kg daily oral, estrone 0",35.9 ± 1.0 mg
same,Uterine wet weight (mg ± S.D.),"[1]; Table 1, estrone 1.0 µg/kg daily subcutaneous + Compound A 50 mg/kg daily oral",60.8 ± 4.1 mg
same,Uterine wet weight (mg ± S.D.),"[1]; Table 1, estrone 1.0 µg/kg daily subcutaneous + Compound A 100 mg/kg daily oral",70.6 ± 2.7 mg
"CC(C)Oc1ccc2c(=O)c(-c3ccccc3)coc2c1 [Compound B, 7-isopropyloxy-isoflavone]",deaths and toxic symptoms (acute toxicity),ICR mice; [2],None of the groups showed deaths nor toxic symptoms
same,deaths and toxic symptoms (acute toxicity),ICR mice; [3],None of the groups showed deaths nor toxic symptoms
same,potentiation of the uterine weight increasing action of estrone,[1]; Compound B at 50 and 200 mg/kg oral with estrone subcutaneous,potentiated the uterine weight increasing action of estrone
same,increase of uterine weight by the compound alone,[1]; Compound B at 50 and 200 mg/kg oral,did not cause an increase of uterine weight
same,Uterine wet weight (mg ± S.D.),"[1]; Table 2, Compound B 50 mg/kg daily oral, estrone 0",32.2 ± 1.3 mg
same,Uterine wet weight (mg ± S.D.),"[1]; Table 2, Compound B 200 mg/kg daily oral, estrone 0",34.7 ± 1.2 mg
same,Uterine wet weight (mg ± S.D.),"[1]; Table 2, estrone 0.5 µg/kg daily subcutaneous + Compound B 50 mg/kg daily oral",39.6 ± 2.4 mg
same,Uterine wet weight (mg ± S.D.),"[1]; Table 2, estrone 0.5 µg/kg daily subcutaneous + Compound B 200 mg/kg daily oral",51.3 ± 5.3 mg
same,Uterine wet weight (mg ± S.D.),"[1]; Table 2, estrone 1.0 µg/kg daily subcutaneous + Compound B 50 mg/kg daily oral",58.2 ± 2.6 mg
same,Uterine wet weight (mg ± S.D.),"[1]; Table 2, estrone 1.0 µg/kg daily subcutaneous + Compound B 200 mg/kg daily oral",71.5 ± 7.4^+ mg
same,deaths and toxic symptoms (acute toxicity),Spraque-Dawley rats; [2],None of the groups showed deaths nor toxic symptoms
same,deaths and toxic symptoms (acute toxicity),Spraque-Dawley rats; [3],None of the groups showed deaths nor toxic symptoms
"C[C@]12CC[C@@H]3c4ccc(O)cc4CC[C@H]3[C@@H]1CCC2=O [estrone, reference compound]",Uterine wet weight (mg ± S.D.),"[1]; Table 1, estrone 1.0 µg/kg daily subcutaneous alone (Compound A 0)",52.6 ± 2.3 mg
same,Uterine wet weight (mg ± S.D.),"[1]; Table 2, estrone 0.5 µg/kg daily subcutaneous alone (Compound B 0)",36.3 ± 1.9 mg
same,Uterine wet weight (mg ± S.D.),"[1]; Table 2, estrone 1.0 µg/kg daily subcutaneous alone (Compound B 0)",51.9 ± 4.2 mg
